# Test: log P by HPLC on a reversed-phase column (C18), EEC Directive 79/831 Annex V.A8
# Type: physicochemical
# Description: The stated log P values were determined in accordance with EEC Directive 79/831 Annex V.A8 by HPLC (High Performance Liquid Chromatography) using a reversed-phase column (C18).
# [1] = HCOOH, Table 4, compounds of formula I-A-Q4
# [2] = HPLC, reversed-phase C18, mobile phase with formic acid
Structure (SMILES),log P (HCOOH) (HCOOH),also measured
Cc1cc(-n2nc(C(F)(F)F)c(-c3cc(Cl)cc(Cl)c3)c2N)ccc1C(=O)NCc1ncc[nH]1 [I-A-Q2-034],I-A-Q2-034: log P (HCOOH): 1.94,
Cc1cc(-n2nc(C(C)C)c(-c3ccc(Cl)cc3)c2N)ccc1C(=O)NCC(F)(F)C(F)F [I-A-Q2-338],I-A-Q2-338: log P (HCOOH): 3.65,
Cc1cc(-n2nc(C(F)(F)F)c(-c3cc(Cl)cc(Cl)c3)c2N)ccc1C(=O)NCC(F)(F)Br [I-A-Q2-268],I-A-Q2-268: log P (HCOOH): 4.45,
Cc1cc(-n2nc(C(F)(F)C(F)(F)F)c(-c3ccc(Cl)cc3)c2N)ccc1C(=O)NCc1ccccn1 [I-A-Q2-363],I-A-Q2-363: log P (HCOOH): 3.19,
Cc1cc(C)cc(-c2c(C(F)(F)F)nn(-c3ccc(C(=O)NCc4ccccn4)cc3)c2N)c1 [I-A-Q2-180],I-A-Q2-180: log P (HCOOH): 2.61,
Nc1c(-c2ccc(F)c(F)c2)c(C(F)(F)F)nn1-c1ccc(Cl)cn1 [I-A-Q4-050],,log P (HCOOH) [1]: I-A-Q4-050: log P (HCOOH): 4.64
Cc1cc(-n2nc(C(F)(F)F)c(-c3cc(Cl)cc(Cl)c3)c2N)ccc1C(=O)NC(C)c1ccc(C(F)(F)F)cn1 (stereo not shown) [I-A-Q2-240],I-A-Q2-240: log P (HCOOH): 4.70,
Cc1cc(-n2nc(C(F)(F)F)c(-c3ccc(Cl)cc3Cl)c2N)ccc1C(=O)NCc1ccccn1 [I-A-Q2-348],I-A-Q2-348: log P (HCOOH): 2.84,
Nc1c(-c2cc(Cl)cc(Cl)c2)c(C(F)(F)F)nn1-c1ccc(C(=O)O)cc1 [I-A-Q4-087],,log P (HCOOH) [1]: I-A-Q4-087: log P (HCOOH): 3.79
Cc1cc(-n2nc(C(F)(F)Oc3cc(Cl)ccc3Cl)c(-c3cc(Cl)cc(C(F)(F)F)c3)c2N)ccc1C(=O)NCC(F)(F)C(F)F [I-A-Q2-296],I-A-Q2-296: log P (HCOOH): 5.14,
Cc1cc(-n2nc(C)c(-c3c(Cl)cccc3Cl)c2N)ccc1C(=O)NCC(F)(F)C(F)F [I-A-Q2-336],I-A-Q2-336: log P (HCOOH): 2.76,
N#Cc1cc(-n2nc(C(F)(F)F)c(-c3cc(Cl)cc(Cl)c3)c2N)ccc1F [I-A-Q4-103],,log P (HCOOH) [1]: I-A-Q4-103: log P (HCOOH): 4.44
C=CCNC(=O)c1ccc(-n2nc(C(F)(F)F)c(-c3cc(Cl)cc(Cl)c3)c2N)cc1C [I-A-Q2-062],I-A-Q2-062: log P (HCOOH): 3.94,
Cc1cc(-n2nc(C(F)(F)F)c(-c3cc(Cl)cc(Cl)c3)c2N)ccc1C(=O)NCc1ncc(C(F)(F)F)cc1Cl [I-A-Q2-230],I-A-Q2-230: log P (HCOOH): 4.89,
CC(NC(=O)c1ccc(-n2nc(C(F)(F)F)c(-c3ccc(Br)cc3)c2N)cc1)c1ccccn1 (stereo not shown) [I-A-Q2-192],I-A-Q2-192: log P (HCOOH): 2.89,
Cc1cc(-n2nc(C(F)(F)F)c(-c3cc(Cl)cc(Cl)c3)c2N)ccc1C(=O)NC(C)c1ccccn1 (stereo not shown) [I-A-Q2-015],I-A-Q2-015: log P (HCOOH): 3.70,
COC(=O)CC(NC(=O)c1ccc(-n2nc(C(F)(F)F)c(-c3cc(Cl)cc(Cl)c3)c2N)cc1C)c1ccccn1 (stereo not shown) [I-A-Q2-057],I-A-Q2-057: log P (HCOOH): 2.72,
N#Cc1cc(-n2nc(C(F)(F)F)c(-c3cccc(Br)c3)c2N)ccc1-n1cncn1 [I-A-Q1-046],,log P (HCOOH) [2]: I-A-Q1-046: log P (HCOOH): 3.24
Cc1cc(-n2nc(C(F)(F)F)c(-c3cc(Cl)cc(Cl)c3)c2N)ccc1C(=O)NCc1cc(F)ccc1F [I-A-Q2-046],I-A-Q2-046: log P (HCOOH): 4.51,
Cc1cc(-n2nc(C(F)(F)F)c(Br)c2N)ccc1C(=O)NCc1ccccn1 [XI-A-093],XI-A-093: log P (HCOOH): 1.98,
N#Cc1cnn(-c2ccc(-n3nc(C(F)(F)F)c(-c4cc(Cl)cc(Cl)c4)c3N)cc2C#N)c1 [I-A-Q1-079],,log P (HCOOH) [2]: I-A-Q1-079: log P (HCOOH): 4.28

Structure (SMILES),log P (HCOOH) (HCOOH),also measured
N#Cc1cc(-n2nc(C(F)(F)Cl)c(-c3cc(Cl)cc(C(F)(F)F)c3)c2N)ccc1-n1cncn1 [I-A-Q1-049],,log P (HCOOH) [2]: I-A-Q1-049: log P (HCOOH): 4.11
CC(C)NC(=O)c1ccc(-n2nc(C(F)(F)F)c(-c3cc(Cl)cc(Cl)c3)c2N)nc1 [I-A-Q2-097],I-A-Q2-097: log P (HCOOH): 4.64,
CC(C)c1nn(-c2ccc(Cl)cn2)c(N)c1-c1ccc(Cl)cc1 [I-A-Q4-027],,log P (HCOOH) [1]: I-A-Q4-027: log P (HCOOH): 5.73
Nc1c(-c2ccc(F)c(Cl)c2)c(C(F)(F)F)nn1-c1ccc(C(=O)O)cc1 [I-A-Q4-094],,log P (HCOOH) [1]: I-A-Q4-094: log P (HCOOH): 3.31
Nc1c(-c2ccc(F)c(Cl)c2)c(C(F)(F)F)nn1-c1ccc(Cl)cn1 [I-A-Q4-047],,log P (HCOOH) [1]: I-A-Q4-047: log P (HCOOH): 4.95
Cc1cc(-n2nc(C(F)(F)F)c(-c3cc(Cl)cc(Cl)c3)c2N)ccc1C(=O)NC(C)C1(Cl)CC1 (stereo not shown) [I-A-Q2-261],I-A-Q2-261: log P (HCOOH): 4.76,
Cc1nc(CNC(=O)c2ccc(-n3nc(C(F)(F)F)c(-c4cc(Cl)cc(Cl)c4)c3N)cc2C)c(C)o1 [I-A-Q2-251],I-A-Q2-251: log P (HCOOH): 3.84,
Nc1c(-c2ccc(Cl)c(F)c2)c(C(F)(F)F)nn1-c1ccc(C(=O)O)cc1 [I-A-Q4-093],,log P (HCOOH) [1]: I-A-Q4-093: log P (HCOOH): 3.39
Nc1c(-c2cc(Cl)cc(Cl)c2)c(C(F)(F)F)nn1-c1ccc(C(=O)NCC(F)F)cc1 [I-A-Q2-140],I-A-Q2-140: log P (HCOOH): 3.93,
Cc1nn(-c2ccc(-n3cncn3)c(C#N)c2)c(N)c1-c1ccc(F)cc1Cl [I-A-Q1-052],,log P (HCOOH) [2]: I-A-Q1-052: log P (HCOOH): 2.43
Cc1cc(-n2nc(C(F)(F)F)c(-c3cc(Cl)cc(Cl)c3)c2N)ccc1C(=O)NC1CCC1 [I-A-Q2-239],I-A-Q2-239: log P (HCOOH): 4.17,
Cc1cc(-n2nc(C(F)(F)F)c(-c3ccc(F)c(Cl)c3)c2N)ccc1C(=O)NCC(F)(F)C(F)F [I-A-Q2-309],I-A-Q2-309: log P (HCOOH): 3.65,
Cc1cc(-n2nc(C)c(-c3ccc(F)cc3F)c2N)ccc1C(=O)NCc1ccccn1 [I-A-Q2-370],I-A-Q2-370: log P (HCOOH): 1.64,
Cc1cc(-n2nc(C)c(-c3ccc(F)cc3)c2N)ccc1C(=O)NCc1ccccn1 [I-A-Q2-367],I-A-Q2-367: log P (HCOOH): 1.59,
Nc1c(-c2c(F)cc(F)cc2F)c(C(F)(F)F)nn1-c1ccc(Cl)cn1 [I-A-Q4-046],,log P (HCOOH) [1]: I-A-Q4-046: log P (HCOOH): 4.46
Nc1c(-c2cc(Cl)cc(Cl)c2)c(C(F)(F)F)nn1-c1ccc(C(=O)NCc2ccccn2)c(C(F)(F)F)c1 [I-A-Q2-386],I-A-Q2-386: log P (HCOOH): 3.77,
Cc1cc(-n2nc(C(F)(F)F)c(-c3cc(Cl)cc(Cl)c3)c2N)ccc1C(=O)NCc1ncc(F)cc1F [I-A-Q2-278],I-A-Q2-278: log P (HCOOH): 4.30,
Cc1cc(-n2nc(C(F)(F)F)c(-c3cc(Cl)cc(Cl)c3)c2N)ccc1C(=O)NCc1ccncc1 [I-A-Q2-212],I-A-Q2-212: log P (HCOOH): 2.27,
Nc1c(-c2cc(Cl)cc(Cl)c2)c(C(F)(F)F)nn1-c1ccc(CNC(=O)CC(F)(F)F)c(Cl)c1 [I-A-Q3-021],,log P (HCOOH) [2]: I-A-Q3-021: log P (HCOOH): 4.48
Cc1cc(-n2nc(C(F)(F)F)c(-c3cc(Cl)cc(Cl)c3)c2N)ccc1C(=O)NCc1ccccc1 [I-A-Q2-271],I-A-Q2-271: log P (HCOOH): 4.45,
Cc1cc(-n2nc(C)c(-c3c(Cl)cccc3Cl)c2N)ccc1C(=O)NCc1ccccn1 [I-A-Q2-376],I-A-Q2-376: log P (HCOOH): 1.79,

Structure (SMILES),log P (HCOOH) (HCOOH),also measured
Cc1nn(-c2ccc(-n3cncn3)c(C#N)c2)c(N)c1-c1c(Cl)cccc1Cl [I-A-Q1-055],,log P (HCOOH) [2]: I-A-Q1-055: log P (HCOOH): 2.47
Cc1cc(-n2nc(C(F)(F)F)c(-c3cc(Cl)cc(Cl)c3)c2N)ccc1C(=O)NC(C)c1cccnc1 (stereo not shown) [I-A-Q2-231],I-A-Q2-231: log P (HCOOH): 2.69,
CN(C)C=Nc1c(-c2ccc(Cl)cc2)c(C(F)(F)F)nn1-c1ncc(Cl)cn1 [I-A-Q4-015],,log P (HCOOH) [1]: I-A-Q4-015: log P (HCOOH): 3.47
Cc1cc(-n2nc(C(F)(F)F)c(-c3cc(Cl)cc(Cl)c3)c2N)ccc1C(=O)NC(C)c1ccncc1 (stereo not shown) [I-A-Q2-234],I-A-Q2-234: log P (HCOOH): 2.38,
Cc1nn(-c2ccc(-n3cncn3)c(C#N)c2)c(N)c1-c1c(F)cccc1F [I-A-Q1-054],,log P (HCOOH) [2]: I-A-Q1-054: log P (HCOOH): 2.18
CC(NC(=O)c1ccc(-n2nc(C(F)(F)F)c(-c3cccc(Cl)c3)c2N)cc1)c1ccccn1 (stereo not shown) [I-A-Q2-087],I-A-Q2-087: log P (HCOOH): 2.80,
Cc1cc(-n2nc(C(F)(F)F)c(-c3cc(Cl)cc(Cl)c3)c2N)ccc1C(=O)NCCC(F)=C(F)F [I-A-Q2-061],I-A-Q2-061: log P (HCOOH): 4.45,
Cc1cc(-n2nc(C(F)(F)F)c(Br)c2N)ccc1C(=O)O [XI-A-086],XI-A-086: log P (HCOOH): 2.54,
N#Cc1cc(-n2nc(C(F)(F)F)c(-c3cc(Cl)cc(Cl)c3)c2N)ccc1-n1nc[nH]c1=O [I-A-Q1-026],,log P (HCOOH) [2]: I-A-Q1-026: log P (HCOOH): 3.37
Cc1cc(-n2nc(C(F)(F)F)c(-c3cc(Cl)cc(Cl)c3)c2N)ccc1C(=O)NC1CCCC1 [I-A-Q2-223],I-A-Q2-223: log P (HCOOH): 4.45,
Nc1c(-c2ccc(Cl)c(Cl)c2)c(C(F)(F)F)nn1-c1ccc(C(=O)NC2CC2)cc1 [I-A-Q2-157],I-A-Q2-157: log P (HCOOH): 3.51,
Cc1cc(-n2nc(C(F)(F)F)c(-c3cc(Cl)cc(Cl)c3)c2N)ccc1C(=O)NC1(c2ccccn2)CC1 [I-A-Q2-244],I-A-Q2-244: log P (HCOOH): 3.68,
Cc1ncc(CNC(=O)c2ccc(-n3nc(C(F)(F)F)c(-c4cc(Cl)cc(Cl)c4)c3N)cc2C)c(N)n1 [I-A-Q2-053],I-A-Q2-053: log P (HCOOH): 2.04,
Cc1cc(-n2nc(C(F)(F)F)c(-c3cc(Cl)cc(Cl)c3)c2N)ccc1C(=O)NCC1CC1 [I-A-Q2-220],I-A-Q2-220: log P (HCOOH): 4.11,
Cc1cc(-n2nc(C(F)(F)F)c(-c3cc(Cl)cc(Cl)c3)c2N)ccc1C(=O)NCCO [I-A-Q2-272],I-A-Q2-272: log P (HCOOH): 3.24,
Nc1c(-c2cccc(F)c2)c(C(F)(F)F)nn1-c1ccc(C(=O)NC2CC2)cc1 [I-A-Q2-184],I-A-Q2-184: log P (HCOOH): 2.76,
Nc1c(-c2ccccc2Cl)c(C(F)(F)F)nn1-c1ccc(Cl)cn1 [I-A-Q4-023],,log P (HCOOH) [1]: I-A-Q4-023: log P (HCOOH): 4.57
Cc1nn(-c2ccc(Cl)cn2)c(N)c1-c1ccc(F)cc1F [I-A-Q4-035],,log P (HCOOH) [1]: I-A-Q4-035: log P (HCOOH): 3.78
Cc1cc(-n2nc(C(F)(F)F)c(-c3cc(Cl)cc(Cl)c3)c2N)ccc1C(=O)NC1CCN(C(=O)C2CC2)CC1 [I-A-Q2-203],I-A-Q2-203: log P (HCOOH): 3.77,

# — patent US20110190365A1, “Insecticidal 4-phenyl-1H-pyrazoles” (Bayer Crop Science AG, priority 2008, published 2011)
